Literature values as cited in patent US20060051384A1, “Antiseptic compositions and methods of use” (priority 2004, published 2006).

Test system: methicillin resistant staphylococcus aureus

povidone-iodine
decrease of activity on addition of nasal secretions: 80-90 wt %
